# ChEMBL document CHEMBL3994582, “A2B adenosine receptor antagonists: Design, synthesis and biological evaluation of novel xanthine derivatives” (Eur J Med Chem, 2017)
# Legend:
# Adenosine receptor A2b = molecular target: T1, Adenosine receptor A2b (Homo sapiens, UniProt P29275); experiment: Displacement of [3H]-MRS-1754 from human adenosine receptor A2b expressed in HEK293 cell membranes after 90 mins by liquid scintillation counting method
# T1 sequence (P29275 whole entry): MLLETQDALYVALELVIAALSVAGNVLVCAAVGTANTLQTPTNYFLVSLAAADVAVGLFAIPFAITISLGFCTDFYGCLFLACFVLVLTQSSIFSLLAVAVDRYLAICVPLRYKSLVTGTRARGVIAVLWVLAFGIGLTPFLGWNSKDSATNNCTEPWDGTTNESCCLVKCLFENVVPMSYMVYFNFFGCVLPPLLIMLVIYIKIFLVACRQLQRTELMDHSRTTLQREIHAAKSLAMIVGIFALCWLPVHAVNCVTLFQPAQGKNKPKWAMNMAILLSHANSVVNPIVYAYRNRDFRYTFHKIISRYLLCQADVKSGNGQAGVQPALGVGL
# [1] = molecular target: T2, Adenosine receptor A1 (Homo sapiens) (UniProt P30542); experiment: Displacement of [3H]DPCPX from human adenosine receptor A1 expressed in HEK293 cell membranes at 0.1 uM after 90 mins by liquid scintillation counting method relative to control
# T2 sequence (whole entry): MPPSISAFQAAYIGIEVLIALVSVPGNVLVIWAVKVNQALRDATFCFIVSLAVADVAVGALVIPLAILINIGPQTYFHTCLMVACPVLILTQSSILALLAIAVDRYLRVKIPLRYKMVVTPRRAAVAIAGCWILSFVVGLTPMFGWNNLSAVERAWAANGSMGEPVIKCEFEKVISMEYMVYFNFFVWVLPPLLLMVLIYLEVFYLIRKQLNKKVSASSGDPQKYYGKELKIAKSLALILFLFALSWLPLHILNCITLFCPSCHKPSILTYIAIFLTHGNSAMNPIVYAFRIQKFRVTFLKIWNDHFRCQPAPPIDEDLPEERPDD
# Adenosine receptor A2a = Adenosine receptor A2a (Homo sapiens, UniProt P29274); experiment: Displacement of [3H]-ZM-241385 from human adenosine receptor A2a expressed in HEK293 cell membranes at 0.1 uM after 90 mins by liquid scintillation counting method relative to control
# Chain of Adenosine receptor A2a (P29274 whole entry): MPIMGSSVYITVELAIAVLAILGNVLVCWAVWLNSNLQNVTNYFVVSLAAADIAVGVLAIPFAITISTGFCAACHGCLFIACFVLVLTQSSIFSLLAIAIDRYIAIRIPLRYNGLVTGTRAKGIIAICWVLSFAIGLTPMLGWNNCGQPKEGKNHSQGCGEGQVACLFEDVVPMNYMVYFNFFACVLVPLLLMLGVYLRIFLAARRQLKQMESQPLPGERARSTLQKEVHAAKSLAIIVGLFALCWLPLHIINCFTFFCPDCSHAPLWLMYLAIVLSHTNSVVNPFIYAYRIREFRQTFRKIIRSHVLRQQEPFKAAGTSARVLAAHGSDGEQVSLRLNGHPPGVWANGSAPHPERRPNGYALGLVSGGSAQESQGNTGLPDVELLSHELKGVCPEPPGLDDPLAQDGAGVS
# [2] = molecular target: T3, Adenosine receptor A3 (Homo sapiens) (UniProt P0DMS8); experiment: Displacement of [3H]-HEM-ADO from human adenosine receptor A3 expressed in HEK293 cell membranes at 1 uM after 90 mins by liquid scintillation counting method relative to control
# T3 sequence (whole entry): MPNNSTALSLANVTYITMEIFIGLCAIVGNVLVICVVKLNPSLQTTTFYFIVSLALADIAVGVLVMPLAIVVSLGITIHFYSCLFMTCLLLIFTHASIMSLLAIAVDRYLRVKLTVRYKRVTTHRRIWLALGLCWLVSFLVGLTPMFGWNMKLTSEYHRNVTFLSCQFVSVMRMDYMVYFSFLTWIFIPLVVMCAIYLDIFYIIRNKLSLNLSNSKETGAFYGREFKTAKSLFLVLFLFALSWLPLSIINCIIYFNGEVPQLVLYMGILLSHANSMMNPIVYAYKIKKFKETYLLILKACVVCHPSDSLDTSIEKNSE
# [3] = Solubility of the compound; type: physicochemical
# Liver [4] = experiment: Metabolic stability in mouse liver microsomes assessed as metabolic rate per mg protein preincubated for 5 mins followed by NADPH addition measured up to 30 mins by LC-MS/MS analysis; type: ADME, microsome; settings: 0.5 h
# Liver [5] = experiment: Metabolic stability in human liver microsomes assessed as metabolic rate per mg protein preincubated for 5 mins followed by NADPH addition measured up to 30 mins by LC-MS/MS analysis; type: ADME, microsome; settings: 0.5 h
SMILES,Ki (Adenosine receptor A2b),inhibition [1],inhibition (Adenosine receptor A2a),inhibition [2],solubility [3],Drug metabolism (Liver [4]),Drug metabolism (Liver [5])
CCCn1c(=O)c2[nH]c(-c3ccc(OCC4CC(=O)N(c5ccc(F)cc5)C4)cc3)nc2n(CCC)c1=O (stereo not given),5.4 nM,29%,89%,44%,Insoluble,,
CCCn1c(=O)c2[nH]c(-c3cnn(CCC4CC(=O)N(c5cccc(C(F)(F)F)c5)C4)c3)nc2n(CCC)c1=O (stereo not given),2.6 nM,40%,65%,29%,,0.3 nmol/min/mg,0.14 nmol/min/mg
CCCn1c(=O)c2[nH]c(-c3cnn(CC4CC(=O)N(c5ccc(F)cc5)C4)c3)nc2n(CCC)c1=O (stereo not given),9.7 nM,31%,42%,14%,,0.19 nmol/min/mg,0.06 nmol/min/mg
CCCn1c(=O)c2[nH]c(-c3ccc(OCC4CC(=O)N(c5ccc(C(F)(F)F)cc5)C4)cc3)nc2n(CCC)c1=O (stereo not given),1 nM,29%,60%,23%,Insoluble,0.01 nmol/min/mg,0.05 nmol/min/mg
CCCn1c(=O)c2[nH]c(-c3cnn(CC4CC(=O)N(c5cccc(C(F)(F)F)c5)C4)c3)nc2n(CC)c1=O (stereo not given),4.5 nM,18%,23%,0%,,0.49 nmol/min/mg,0.12 nmol/min/mg
CCCn1c(=O)c2[nH]c(-c3cnn(CC(O)C4CC(=O)N(c5cccc(C(F)(F)F)c5)C4)c3)nc2n(CCC)c1=O (stereo not given),1.2 nM,12%,60%,27%,,0.22 nmol/min/mg,0.19 nmol/min/mg
CCCn1c(=O)c2[nH]c(-c3cnn(CC4CCN(c5cccc(C(F)(F)F)c5)C4=O)c3)nc2n(CCC)c1=O (stereo not given),6 nM,58%,30%,17%,,0.34 nmol/min/mg,0.2 nmol/min/mg
CCCn1c(=O)c2[nH]c(-c3cnn(CC4CC(=O)N(c5cccc(C)c5)C4)c3)nc2n(CCC)c1=O (stereo not given),10.7 nM,29%,0%,0%,,0.46 nmol/min/mg,0.18 nmol/min/mg
CCCn1c(=O)c2[nH]c(-c3cnn(CC4CC(=O)N(c5ccc(C#N)cc5)C4)c3)nc2n(CCC)c1=O (stereo not given),23 nM,18%,20%,2%,,0 nmol/min/mg,0.15 nmol/min/mg
CCCn1c(=O)c2[nH]c(-c3cnn(CC4CC(=O)N(c5cccc(F)c5)C4)c3)nc2n(CCC)c1=O (stereo not given),41 nM,32%,68%,17%,,0.35 nmol/min/mg,0.02 nmol/min/mg
CCCn1c(=O)c2[nH]c(-c3cnn(CC4CC(=O)N(c5ccc(OC(F)(F)F)cc5)C4)c3)nc2n(CCC)c1=O (stereo not given),4 nM,23%,24%,0%,,0.24 nmol/min/mg,0.13 nmol/min/mg
CCCn1c(=O)c2[nH]c(-c3ccc(OCC4CC(=O)N(c5cccc(F)c5)C4)nc3)nc2n(CCC)c1=O (stereo not given),4.6 nM,17%,85%,53%,Insoluble,,
CCCn1c(=O)c2[nH]c(-c3cnn(CC4CCN(c5cccc(C(F)(F)F)c5)C4)c3)nc2n(CCC)c1=O (stereo not given),3.6 nM,38%,57%,2%,,0 nmol/min/mg,0.01 nmol/min/mg
CCCn1c(=O)c2[nH]c(-c3cnn(CC(=O)N4CCN(c5ccc(F)cc5F)CC4)c3)nc2n(CCC)c1=O,10.7 nM,45%,56%,0%,,0.23 nmol/min/mg,0.11 nmol/min/mg
CCCn1c(=O)c2[nH]c(-c3cnn(CC4CC(=O)N(c5ccc(OC)cc5)C4)c3)nc2n(CCC)c1=O (stereo not given),9 nM,38%,51%,27%,,0.22 nmol/min/mg,0.19 nmol/min/mg
CCCn1c(=O)c2[nH]c(-c3cnn(CC4CC(=O)N(c5ccc(F)cc5F)C4)c3)nc2n(CCC)c1=O (stereo not given),19 nM,13%,45%,0%,,0.48 nmol/min/mg,0.03 nmol/min/mg
CCCn1c(=O)c2[nH]c(-c3cnn(CC4CCN(c5ccc(OC)cc5)C4)c3)nc2n(CCC)c1=O (stereo not given),13 nM,21%,53%,3%,,0.43 nmol/min/mg,0.37 nmol/min/mg
CCCn1c(=O)c2[nH]c(-c3ccc(OCC4CC(=O)N(c5cccc(F)c5)C4)cc3)nc2n(CCC)c1=O (stereo not given),9 nM,33%,89%,19%,Insoluble,,
CCCn1c(=O)c2[nH]c(-c3cnn(CC4CCN(c5cccc(OC)c5)C4)c3)nc2n(CCC)c1=O (stereo not given),13.7 nM,43%,69%,12%,,0.67 nmol/min/mg,0.78 nmol/min/mg
CCCn1c(=O)c2[nH]c(-c3cnn(CC4CCN(c5ccc(OC(F)(F)F)cc5)C4)c3)nc2n(CCC)c1=O (stereo not given),14 nM,23%,26%,2%,,0.15 nmol/min/mg,0.16 nmol/min/mg
CCCn1c(=O)c2[nH]c(-c3ccc(OCC4CC(=O)N(c5ccc(F)cc5)C4)nc3)nc2n(CCC)c1=O (stereo not given),4 nM,30%,80%,53%,Insoluble,,
CCCn1c(=O)c2[nH]c(-c3cnn(CC4CC(=O)N(c5cccc(F)c5)C4)c3)nc2n(CC)c1=O (stereo not given),24 nM,30%,37%,0%,,0.29 nmol/min/mg,0.06 nmol/min/mg
CCCn1c(=O)c2[nH]c(-c3cnn(CC4CC(=O)N(c5cccc(C(F)(F)F)c5)C4)c3)nc2n(CCC)c1=O (stereo not given),6.5 nM,25%,48%,31%,,0.61 nmol/min/mg,0.18 nmol/min/mg
